Experiments:
KAT-8 = KAT-8 (Homo sapiens (Human), UniProt Q9H7Z6); assay: KAT-8 biochemical inhibition assay (SAMDI mass spectrometry)
In short: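 Compounds in 2% DMSO pre-incubated with 12.5 nM enzyme in 50 mM Tris pH 8.0 with Tween20, gelatin and 1 mM DTT. Then 1 μM peptide and 5 μM acetyl-CoA were added, 90 min at 25 °C; formic acid stop and SAMDI-TOF mass spectrometry for IC50.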

KAT-7 = KAT-7 (Homo sapiens (Human), UniProt O95251); assay: KAT-7 biochemical inhibition assay (SAMDI mass spectrometry)
KAT-7, sequence (O95251 other isoform, or with tags, fused parts or gaps): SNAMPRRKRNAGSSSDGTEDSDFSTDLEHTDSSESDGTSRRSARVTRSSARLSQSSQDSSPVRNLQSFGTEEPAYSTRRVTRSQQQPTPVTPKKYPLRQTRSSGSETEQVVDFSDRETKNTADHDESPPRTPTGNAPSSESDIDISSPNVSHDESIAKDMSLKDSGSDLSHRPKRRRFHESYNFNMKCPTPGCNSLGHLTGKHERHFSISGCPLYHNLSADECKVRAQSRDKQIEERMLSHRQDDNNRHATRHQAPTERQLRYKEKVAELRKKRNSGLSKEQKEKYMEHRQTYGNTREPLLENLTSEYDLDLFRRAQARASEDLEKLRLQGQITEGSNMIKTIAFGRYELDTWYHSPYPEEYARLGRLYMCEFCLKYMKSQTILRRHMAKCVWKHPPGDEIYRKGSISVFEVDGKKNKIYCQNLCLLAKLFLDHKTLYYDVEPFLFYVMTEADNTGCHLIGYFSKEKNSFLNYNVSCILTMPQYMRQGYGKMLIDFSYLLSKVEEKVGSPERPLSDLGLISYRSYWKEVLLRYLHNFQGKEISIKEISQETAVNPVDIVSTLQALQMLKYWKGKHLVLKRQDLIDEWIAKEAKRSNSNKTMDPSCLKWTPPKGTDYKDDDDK
In short: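 KAT-7 (6 nM) was pre-incubated with serially diluted compound (2% DMSO) in Tris pH 8.0 with DTT. Reaction with 1 μM peptide and 2 μM acetyl-CoA ran 120 min at 25 °C and was stopped with 0.5% formic acid. Acetylation was read by SAMDI-TOF mass spectrometry to give IC50.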

KAT-6A = KAT-6A (Homo sapiens (Human), UniProt Q92794); assay: KAT-6A biochemical inhibition assay (SAMDI mass spectrometry)
KAT-6A, sequence (Q92794 other isoform, or with tags, fused parts or gaps): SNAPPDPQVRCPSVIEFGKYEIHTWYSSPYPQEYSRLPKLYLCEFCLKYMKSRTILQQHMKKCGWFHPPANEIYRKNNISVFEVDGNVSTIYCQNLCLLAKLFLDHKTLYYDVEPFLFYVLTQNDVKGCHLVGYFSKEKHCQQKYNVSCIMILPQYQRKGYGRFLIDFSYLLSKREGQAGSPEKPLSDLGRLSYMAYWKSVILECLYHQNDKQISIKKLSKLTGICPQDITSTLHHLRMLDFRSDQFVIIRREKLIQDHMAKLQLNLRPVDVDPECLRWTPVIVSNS
In short: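 Enzyme (12.5 nM final) pre-incubated with serially diluted compounds (2% DMSO final) in 50 mM Tris pH 8.0 with Tween20, gelatin and 1 mM DTT. Reaction started with 1 μM peptide substrate and 1 μM acetyl-CoA, run 90 min at 25 °C, quenched with 0.5% formic acid, read by SAMDI-TOF mass spectrometry; IC50 derived.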

KAT-5 = KAT-5 (Homo sapiens (Human), UniProt Q92993); assay: KAT-5 biochemical inhibition assay (SAMDI mass spectrometry)
KAT-5, sequence (Q92993 other isoform, or with tags, fused parts or gaps): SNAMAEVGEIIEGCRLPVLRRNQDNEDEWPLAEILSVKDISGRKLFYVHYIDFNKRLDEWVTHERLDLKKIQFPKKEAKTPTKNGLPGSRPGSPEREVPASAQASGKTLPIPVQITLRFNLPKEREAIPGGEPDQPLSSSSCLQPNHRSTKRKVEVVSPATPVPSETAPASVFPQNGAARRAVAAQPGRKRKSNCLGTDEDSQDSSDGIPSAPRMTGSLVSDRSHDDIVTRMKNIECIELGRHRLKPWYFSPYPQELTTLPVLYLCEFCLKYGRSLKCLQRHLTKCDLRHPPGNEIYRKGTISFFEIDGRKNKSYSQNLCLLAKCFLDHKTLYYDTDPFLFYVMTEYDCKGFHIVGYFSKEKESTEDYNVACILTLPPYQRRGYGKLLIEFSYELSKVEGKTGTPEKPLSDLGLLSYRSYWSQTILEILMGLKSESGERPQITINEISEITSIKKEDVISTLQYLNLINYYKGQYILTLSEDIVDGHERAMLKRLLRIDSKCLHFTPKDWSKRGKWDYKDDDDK
In short: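 KAT-5 at 9 nM final was preincubated with serially diluted compound (2% DMSO) in 50 mM Tris pH 8.0 with 1 mM DTT. Reaction ran with 1 μM peptide substrate and 0.5 μM acetyl-CoA for 90 min at 25° C, was quenched with 0.5% formic acid, and was read by SAMDI-TOF mass spectrometry.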

KAT-8, sequence (Q9H7Z6 other isoform, or with tags, fused parts or gaps): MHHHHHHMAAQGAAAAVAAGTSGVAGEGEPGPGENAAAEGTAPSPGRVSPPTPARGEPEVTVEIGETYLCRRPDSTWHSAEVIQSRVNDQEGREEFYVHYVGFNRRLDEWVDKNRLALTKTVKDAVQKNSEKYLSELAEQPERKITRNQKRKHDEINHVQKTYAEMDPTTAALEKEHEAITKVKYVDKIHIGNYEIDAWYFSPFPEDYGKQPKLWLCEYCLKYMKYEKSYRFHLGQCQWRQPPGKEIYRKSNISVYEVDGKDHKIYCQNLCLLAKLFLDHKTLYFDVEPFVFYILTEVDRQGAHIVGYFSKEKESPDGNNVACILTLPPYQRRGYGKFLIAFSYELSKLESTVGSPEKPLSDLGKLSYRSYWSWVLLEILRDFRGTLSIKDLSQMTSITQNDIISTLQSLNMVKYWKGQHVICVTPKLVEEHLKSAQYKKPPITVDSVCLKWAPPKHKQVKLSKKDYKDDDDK

Row | Structure (SMILES) | IC50 (KAT-8) [µM] | IC50 (KAT-7) [µM] | IC50 (KAT-6A) [µM] | IC50 (KAT-5) [µM]
1 | Cn1cnc(-c2cc(Cl)c(F)c(C(=O)NNS(=O)(=O)C3COC3)c2)c1 [Compound I-42] | > 100 | < 10 | > 100 | > 100
2 | Cn1cnc(-c2cc(Cl)c(F)c(C(=O)NNS(=O)(=O)C[C@H]3CCCO3)c2)c1 [Compound I-388] | > 100 | < 10 | < 10 | < 10
3 | Cc1nn(C)c(C)c1-c1cc(Cl)c(F)c(C(=O)NNS(=O)(=O)CC2CCOCC2)c1 [Compound I-58] | > 100 | > 100 | > 100 | > 100
4 | Cn1cnc(-c2cc(Cl)c(F)c(C(=O)NNS(=O)(=O)CC3CCCCC3O)c2)c1 (stereo not drawn) [Compound I-384] | 50 to 100 | < 10 | 10 to 50 | < 10
5 | Cn1cnc(-c2cc(Cl)c(F)c(C(=O)NNS(=O)(=O)C[C@H]3CC[C@H](NC(=O)c4cccnc4)CC3)c2)c1 [Compound I-241] | 10 to 50 | < 10 | < 10 | < 10
6 | CNC(=O)N[C@H]1C[C@@H](CS(=O)(=O)NNC(=O)c2cc(-c3cn(C)cn3)cc(Cl)c2F)C1 [Compound I-186] | 10 to 50 | < 10 | < 10 | < 10
7 | Cn1cnc(-c2cc(Cl)c(F)c(C(=O)NNS(=O)(=O)CC3CCN(C(N)=O)C3)c2)c1 (stereo not drawn) [Compound I-205] | 10 to 50 | < 10 | < 10 | < 10
8 | CC(=O)N1CCCC(CS(=O)(=O)NNC(=O)c2cc(-c3cn(C)cn3)cc(C)c2F)C1 (stereo not drawn) [Compound I-142] | > 100 | < 10 | < 10 | < 10
9 | COCCn1cc(S(=O)(=O)NNC(=O)c2cc(-c3cn(C)cn3)cc(Cl)c2F)cn1 [Compound I-212] | 10 to 50 | < 10 | 10 to 50 | 10 to 50
10 | COCCn1cnc(-c2cc(C)c(F)c(C(=O)NNS(=O)(=O)C3CCCCC3)c2)c1 [Compound I-134] | > 100 | < 10 | > 100 | 10 to 50
11 | CN(C)C(=O)N1CC(CS(=O)(=O)NNC(=O)c2cc(-c3cn(C)cn3)cc(Cl)c2F)C1 [Compound I-167] | 10 to 50 | < 10 | < 10 | 10 to 50
12 | Cn1cnc(-c2cc(Cl)c(F)c(C(=O)NNS(=O)(=O)CC3CCCC(NC(=O)Cc4cccnc4)C3)c2)c1 (stereo not drawn) [Compound I-243] | 10 to 50 | < 10 | < 10 | < 10
13 | COCCn1cnc(-c2cc(C)c(F)c(C(=O)NNS(=O)(=O)CC3CCCN(C(=O)OC(C)(C)C)C3)c2)c1 (stereo not drawn) [Compound I-135] | > 100 | 10 to 50 | 50 to 100 | < 10
14 | Cn1cnc(-c2cc(Cl)c(F)c(C(=O)NNS(=O)(=O)CC3CN(S(=O)(=O)C4CC4)C3)c2)c1 [Compound I-185] | 10 to 50 | < 10 | < 10 | 10 to 50
15 | Cn1cnc(-c2cc(Cl)c(F)c(C(=O)NNS(=O)(=O)c3cnn(C)n3)c2)c1 [Compound I-72] | 10 to 50 | < 10 | < 10 | 10 to 50
16 | O=C(NNS(=O)(=O)CC1CCCCC1)c1cc(-n2ccnc2)cc(Cl)c1F [Compound I-44] | > 100 | > 100 | > 100 | 50 to 100
17 | CNC(=O)N1CC[C@@H](CS(=O)(=O)NNC(=O)c2cc(-c3cn(C)cn3)cc(Cl)c2F)C1 [Compound I-209] | 10 to 50 | < 10 | 10 to 50 | < 10
18 | O=C(NNS(=O)(=O)CC1CCOCC1)c1cc(-n2ccnc2)cc(Cl)c1F [Compound I-47] | > 100 | > 100 | 50 to 100 | < 10
19 | CCNC(=O)N[C@@H]1CCC[C@@H](CS(=O)(=O)NNC(=O)c2cc(-c3cn(C)cn3)cc(Cl)c2F)C1 [Compound I-355] | 10 to 50 | < 10 | < 10 | < 10
20 | Cn1cnc(-c2cc(Cl)c(F)c(C(=O)NNS(=O)(=O)c3ccc(Cl)cc3)c2)c1 [Compound I-323] | 10 to 50 | < 10 | < 10 | < 10
21 | CNC(=S)N1CC[C@@H](CS(=O)(=O)NNC(=O)c2cc(-c3cn(C)cn3)cc(Cl)c2F)C1 [Compound I-183] | 10 to 50 | < 10 | < 10 | < 10
22 | CCn1cnc(C)c1-c1cc(Cl)c(F)c(C(=O)NNS(=O)(=O)CC2CCCCC2)c1 [Compound I-40] | > 100 | > 100 | > 100 | > 100

The next lines start with the values.

Row | IC50 (KAT-8) [µM] | IC50 (KAT-7) [µM] | IC50 (KAT-6A) [µM] | IC50 (KAT-5) [µM] | Structure (SMILES)
23 | 10 to 50 | < 10 | < 10 | < 10 | CO[C@H]1CC[C@@H](CS(=O)(=O)NNC(=O)c2cc(-c3cn(C)cn3)cc(Cl)c2F)CC1 [Compound I-353]
24 | 10 to 50 | < 10 | 10 to 50 | < 10 | Cn1cnc(-c2cc(Cl)c(F)c(C(=O)NNS(=O)(=O)c3ccc(OCc4ccccc4)nc3)c2)c1 [Compound I-354]
25 | 10 to 50 | < 10 | < 10 | < 10 | CN(C)C(=O)NC1CCCC(CS(=O)(=O)NNC(=O)c2cc(-c3cn(C)cn3)cc(Cl)c2F)C1 (stereo not drawn) [Compound I-104]
26 | 10 to 50 | < 10 | < 10 | < 10 | Cn1cnc(-c2cc(Cl)c(F)c(C(=O)NNS(=O)(=O)c3ccccc3Cl)c2)c1 [Compound I-309]
27 | 10 to 50 | < 10 | < 10 | < 10 | Cn1cnc(-c2cc(Cl)c(F)c(C(=O)NNS(=O)(=O)c3cccc(F)c3)c2)c1 [Compound I-320]
28 | 10 to 50 | < 10 | < 10 | < 10 | CCS(=O)(=O)N1CCCC(CS(=O)(=O)NNC(=O)c2cc(-c3cn(C)cn3)cc(Cl)c2F)C1 (stereo not drawn) [Compound I-82]
29 | 10 to 50 | < 10 | < 10 | < 10 | COc1ccc(CNC(=O)N2CCCC(CS(=O)(=O)NNC(=O)c3cc(-c4cn(C)cn4)cc(Cl)c3F)C2)cc1 (stereo not drawn) [Compound I-214]
30 | 10 to 50 | < 10 | < 10 | 10 to 50 | Cn1cnc(-c2cc(Cl)c(F)c(C(=O)NNS(=O)(=O)c3ccc(=O)[nH]c3)c2)c1 [Compound I-381]
31 | 10 to 50 | < 10 | < 10 | < 10 | Cn1cnc(-c2cc(Cl)c(F)c(C(=O)NNS(=O)(=O)CC3CCCC(F)(F)C3)c2)c1 (stereo not drawn) [Compound I-342]
32 | 10 to 50 | < 10 | < 10 | < 10 | CC(=O)N[C@H]1CC[C@@H](CS(=O)(=O)NNC(=O)c2cc(-c3cn(C)cn3)cc(Cl)c2F)CC1 [Compound I-184]
33 | 10 to 50 | < 10 | < 10 | < 10 | CNC(=O)NC1CCC(CS(=O)(=O)NNC(=O)c2cc(-c3cn(C)cn3)cc(Cl)c2F)C1 (stereo not drawn) [Compound I-360]
34 | 10 to 50 | < 10 | < 10 | < 10 | Cn1cnc(-c2cc(Cl)c(F)c(C(=O)NNS(=O)(=O)CC3CC4CCC(C3)O4)c2)c1 (stereo not drawn) [Compound I-242]
35 | 10 to 50 | < 10 | < 10 | < 10 | CNC(=S)N1CC[C@H](CS(=O)(=O)NNC(=O)c2cc(-c3cn(C)cn3)cc(Cl)c2F)C1 [Compound I-172]
36 | 10 to 50 | < 10 | < 10 | < 10 | COc1ccc(CN(C)C(=O)N2CCCC(CS(=O)(=O)NNC(=O)c3cc(-c4cn(C)cn4)cc(Cl)c3F)C2)cc1 (stereo not drawn) [Compound I-171]
37 | 10 to 50 | < 10 | < 10 | < 10 | COc1ccc(CN(C)C(=O)NC2CCC(CS(=O)(=O)NNC(=O)c3cc(-c4cn(C)cn4)cc(Cl)c3F)C2)cc1 (stereo not drawn) [Compound I-359]
38 | 10 to 50 | < 10 | 10 to 50 | 10 to 50 | Cn1cnc(-c2cc(Cl)c(F)c(C(=O)NNS(=O)(=O)CC3CN(C(N)=O)C3)c2)c1 [Compound I-208]
39 | 10 to 50 | < 10 | < 10 | < 10 | CNC(=O)N[C@H]1CC[C@H](CS(=O)(=O)NNC(=O)c2cc(-c3cn(C)cn3)cc(Cl)c2F)CC1 [Compound I-176]
40 | 10 to 50 | < 10 | < 10 | 10 to 50 | CC(C)S(=O)(=O)N1CC(CS(=O)(=O)NNC(=O)c2cc(-c3cn(C)cn3)cc(Cl)c2F)C1 [Compound I-193]
41 | 10 to 50 | < 10 | < 10 | 10 to 50 | CCS(=O)(=O)N1CC(CS(=O)(=O)NNC(=O)c2cc(-c3cn(C)cn3)cc(Cl)c2F)C1 [Compound I-164]
42 | 10 to 50 | < 10 | < 10 | < 10 | Cn1cnc(-c2cc(Cl)c(F)c(C(=O)NNS(=O)(=O)CC3CCN(S(C)(=O)=O)C3)c2)c1 (stereo not drawn) [Compound I-63]
